Data taken from ChEMBL document CHEMBL1212695, “An allosteric potentiator of M4 mAChR modulates hippocampal synaptic transmission” (Nat Chem Biol, 2008).
Activity calls are given as the source filed them. The calls are words filed in the database; no cut-off is given here.

What was measured:
[1] = biological target: T1, Muscarinic acetylcholine receptor M5 (Rattus norvegicus) (UniProt P08911); experiment: Displacement of [3H]NMS from rat recombinant muscarinic M5 receptor expressed in CHO cells after 2 hrs by microplate scintillation counting; type: cell-based
T1 sequence (whole entry): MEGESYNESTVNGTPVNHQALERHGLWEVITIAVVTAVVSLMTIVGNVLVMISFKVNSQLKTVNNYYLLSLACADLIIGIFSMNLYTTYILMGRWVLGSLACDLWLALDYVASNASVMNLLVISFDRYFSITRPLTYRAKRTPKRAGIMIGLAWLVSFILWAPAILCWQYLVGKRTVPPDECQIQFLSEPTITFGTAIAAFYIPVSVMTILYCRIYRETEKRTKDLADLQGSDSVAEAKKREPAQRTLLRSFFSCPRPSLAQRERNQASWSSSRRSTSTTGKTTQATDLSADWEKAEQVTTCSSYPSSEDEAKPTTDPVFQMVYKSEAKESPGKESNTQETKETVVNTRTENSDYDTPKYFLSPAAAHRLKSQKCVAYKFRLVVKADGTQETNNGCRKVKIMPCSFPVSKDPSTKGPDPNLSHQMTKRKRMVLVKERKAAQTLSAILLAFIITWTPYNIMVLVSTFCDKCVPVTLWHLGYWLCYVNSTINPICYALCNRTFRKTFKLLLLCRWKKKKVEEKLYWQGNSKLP

[2] = biological target: T2, Muscarinic acetylcholine receptor M4 (Rattus norvegicus) (UniProt P08485); experiment: Agonist activity at muscarinic M4 receptor in Sprague-Dawley rat hippocampal CA1 pyramidal neuron assessed as inhibitory postsynaptic current amplitude at 5 uM by whole-cell electrophysiology relative to control; type: functional, tissue-based; parameters: scale not given: the % may be the effect or the level left; conditions: Hippocampus
T2 sequence (whole entry): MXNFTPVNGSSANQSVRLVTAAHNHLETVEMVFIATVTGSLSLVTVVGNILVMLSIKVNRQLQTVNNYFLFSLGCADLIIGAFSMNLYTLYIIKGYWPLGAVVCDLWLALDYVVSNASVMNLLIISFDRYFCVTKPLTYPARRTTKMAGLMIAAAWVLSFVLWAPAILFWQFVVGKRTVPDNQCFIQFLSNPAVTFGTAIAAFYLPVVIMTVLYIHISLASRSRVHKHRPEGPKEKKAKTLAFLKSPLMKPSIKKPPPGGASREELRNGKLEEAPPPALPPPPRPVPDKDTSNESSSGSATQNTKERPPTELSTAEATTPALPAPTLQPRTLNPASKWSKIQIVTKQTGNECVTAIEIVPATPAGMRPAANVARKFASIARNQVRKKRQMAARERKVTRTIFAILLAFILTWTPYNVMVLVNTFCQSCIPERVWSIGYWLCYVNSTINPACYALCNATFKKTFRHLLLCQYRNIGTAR

[3] = biological target: T2, Muscarinic acetylcholine receptor M4 (Rattus norvegicus); experiment: Agonist activity at muscarinic M4 receptor in Sprague-Dawley rat hippocampal CA1 pyramidal neuron assessed as increase in carbachol-induced reduction in excitatory postsynaptic current at 5 uM by whole-cell electrophysiology relative to control; type: functional, tissue-based; parameters: scale not given: the % may be the effect or the level left; conditions: Hippocampus
[4] = biological target: T2, Muscarinic acetylcholine receptor M4 (Rattus norvegicus); experiment: Agonist activity at muscarinic M4 receptor in Sprague-Dawley rat hippocampal CA1 pyramidal neuron assessed as excitatory postsynaptic current amplitude at 5 uM by whole-cell electrophysiology relative to control; type: functional, tissue-based; conditions: Hippocampus
[5] = biological target: T2, Muscarinic acetylcholine receptor M4 (Rattus norvegicus); experiment: Agonist activity at muscarinic M4 receptor in Sprague-Dawley rat hippocampal CA1 pyramidal neuron assessed as reduction of inhibitory postsynaptic current at 5 uM by whole-cell electrophysiology in presence of carbachol relative to control; type: functional, tissue-based; conditions: Hippocampus
[6] = biological target: T1, Muscarinic acetylcholine receptor M5 (Rattus norvegicus); experiment: Agonist activity at rat recombinant muscarinic M5 receptor expressed in CHO cells assessed as induction of calcium mobilization at 10 uM after 1 hr by fluorescence assay; type: functional, cell-based
[7] = biological target: T2, Muscarinic acetylcholine receptor M4 (Rattus norvegicus); experiment: Allosteric activation of rat recombinant muscarinic M4 receptor expressed in CHO cells assessed as fold decrease in acetylcholine Ki for displacement of [3H]NMS from active binding site at 10 uM after 2 hrs by microplate scintillation counting; type: cell-based
[8] = biological target: T2, Muscarinic acetylcholine receptor M4 (Rattus norvegicus); experiment: Agonist activity at muscarinic M4 receptor in Sprague-Dawley rat hippocampal CA1 pyramidal neuron assessed as reduction of excitatory postsynaptic current at 100 uM by whole-cell electrophysiology relative to control; type: functional, tissue-based; conditions: Hippocampus
[9] = biological target: T2, Muscarinic acetylcholine receptor M4 (Rattus norvegicus); experiment: Agonist activity at muscarinic M4 receptor in Sprague-Dawley rat hippocampal CA1 pyramidal neuron assessed as reduction of inhibitory postsynaptic current at 100 uM by whole-cell electrophysiology relative to control; type: functional, tissue-based; conditions: Hippocampus
CHO = experiment: Antagonist activity at P2Y1 receptor in CHO cells assessed as calcium mobilization at 10 uM after 1 hr by fluorescence assay; type: functional, cell-based; conditions: Cricetulus griseus
[10] = biological target: T3, Muscarinic acetylcholine receptor M4 (Mus musculus) (UniProt P32211); experiment: Agonist activity at muscarinic M4 receptor in wild type mouse hippocampal CA1 pyramidal neuron assessed as excitatory postsynaptic current amplitude at 5 uM by whole-cell electrophysiology relative to control; type: functional, tissue-based; conditions: Hippocampus
T3 sequence (whole entry): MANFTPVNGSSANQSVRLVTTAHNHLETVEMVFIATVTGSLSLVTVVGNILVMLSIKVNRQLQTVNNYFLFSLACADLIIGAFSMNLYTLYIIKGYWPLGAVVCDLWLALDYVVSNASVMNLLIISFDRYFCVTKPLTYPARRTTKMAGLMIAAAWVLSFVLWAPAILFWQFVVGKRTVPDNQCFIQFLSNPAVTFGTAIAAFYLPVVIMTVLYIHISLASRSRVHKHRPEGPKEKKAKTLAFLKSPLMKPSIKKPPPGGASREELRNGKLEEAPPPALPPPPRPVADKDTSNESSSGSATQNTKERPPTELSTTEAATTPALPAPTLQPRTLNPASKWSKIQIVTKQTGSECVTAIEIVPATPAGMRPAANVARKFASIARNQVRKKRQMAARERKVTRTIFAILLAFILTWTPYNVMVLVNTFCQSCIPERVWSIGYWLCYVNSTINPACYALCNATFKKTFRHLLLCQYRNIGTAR

[11] = biological target: T4, Muscarinic acetylcholine receptor M4 (Rattus norvegicus, UniProt P08485); experiment: Allosteric activation of rat recombinant muscarinic M4 receptor expressed in CHO cells assessed as potentiation of 10 uM acetylcholine-induced calcium mobilization after 1 hr by fluorescence assay; type: functional, cell-based
T4 sequence (P08485 whole entry): T2 sequence (whole entry)

[12] = Agonist activity at muscarinic receptor in M4 receptor knock out mouse hippocampal CA1 pyramidal neuron assessed as reduction of excitatory postsynaptic current amplitude at 2 uM by whole-cell electrophysiology relative to control; type: functional; conditions: Hippocampus
[13] = biological target: T1, Muscarinic acetylcholine receptor M5 (Rattus norvegicus); experiment: Antagonist activity at rat recombinant muscarinic M5 receptor expressed in CHO cells assessed as calcium mobilization at 10 uM after 1 hr by fluorescence assay; type: functional, cell-based
[14] = biological target: T3, Muscarinic acetylcholine receptor M4 (Mus musculus); experiment: Agonist activity at muscarinic M4 receptor in wild type mouse hippocampal CA1 pyramidal neuron assessed as reduction of excitatory postsynaptic current at 100 uM by whole-cell electrophysiology relative to control; type: functional, tissue-based; conditions: Hippocampus
[15] = biological target: T2, Muscarinic acetylcholine receptor M4 (Rattus norvegicus); experiment: Agonist activity at muscarinic M4 receptor in Sprague-Dawley rat hippocampal CA1 pyramidal neuron assessed as reduction of excitatory postsynaptic current at 1 uM by whole-cell electrophysiology relative to control; type: functional, tissue-based; parameters: scale not given: the % may be the effect or the level left; conditions: Hippocampus
[16] = Agonist activity at muscarinic receptor in M4 receptor knock out mouse hippocampal CA1 pyramidal neuron assessed as reduction of excitatory postsynaptic current amplitude at 100 uM by whole-cell electrophysiology relative to control; type: functional; conditions: Hippocampus
[17] = biological target: T1, Muscarinic acetylcholine receptor M5 (Rattus norvegicus); experiment: Allosteric activation of rat recombinant muscarinic M5 receptor expressed in CHO cells assessed as potentiation of acetylcholine-induced calcium mobilization at 10 uM after 1 hr by fluorescence assay; type: functional, cell-based

## Cc1cc(C)c2c(N)c(C(=O)NCc3ccc(Cl)cc3)sc2n1
[1]
  Activity: inactive
[2]
  Activity: 98.5%
[3]
  Activity: 36.9%
[4]
  Activity: 108%
[5]
  inhibition: 61.7%
[6]
  Activity: inactive
[7]
  fold change (FC): 14
[8]
  inhibition: 16.1%
[9]
  inhibition: 10.9%
CHO
  Activity: inactive
[10]
  Activity: 102%
[11]
  EC50: 400 nM
[12]
  inhibition at 2 µM: 70.8%
[13]
  Activity: inactive
[14]
  inhibition: 18%
[15]
  Activity: 60.5%
[16]
  inhibition at 100 µM: 21.1%
[17]
  Activity: inactive
